Patent US20130164325A1, “CERAMIDE-LIKE GLYCOLIPID-ASSOCIATED BACTERIAL VACCINES AND USES THEREOF” (Albert Einstein College of Medicine of Yeshiva University, priority 2010, published 2013)

Test system: mouse splenocytes
Assay: Activation of mouse splenocytes with glycolipid-treated BMDCs, IFNγ production
Assay type: cell-based
Conditions: free glycolipid, compared to vehicle control (FIG. 5B)

Q: For `CCCCCCCCCCCCCCCCCCCCCCCCCC(=O)N[C@@H](CO[C@H]1O[C@H](CO)[C@H](O)[C@H](O)[C@H]1O)[C@H](O)[C@H](O)CCCCCCCCCCCCCC` [KRN7000, (2S,3S,4R)-1-O-(α-D-galactopyranosyl)-N-hexacosanoyl-2-amino-1,3,4-octadecanetriol], which IFNγ production is on record?
A: induced IFNγ production
